{"source": "patent US20200352947A1", "about": "“USE OF SEROTONERGIC DRUGS TO TREAT VIRUS-INDUCED THROMBOCYTOPENIA” (NATIONAL UNIVERSITY OF SINGAPORE, priority 2017, published 2020)", "key": {"human platelets": {"tested_on": "human platelets", "assay": "Platelet activation (CD41/CD62P flow cytometry) in stimulated human whole blood", "type": "cell-based", "settings": "ketanserin 100 nM or 500 nM, 15 min; n=4", "description": "(A) Whole blood from healthy human volunteers was isolated and stimulated with DENV2, serotonin, or DENV2+serotonin for 15 min. Cells were then fixed and stained for platelet markers CD41 and CD62P and analyzed by flow cytometry. DENV raised the activation levels of platelets. […] (B) Human whole blood was stimulated with DENV2, mast cells (MCs) or DENV2+MCs in the presence of vehicle or ketanserin (100 nM or 500 nM) for 15 min prior to assessment of platelet activation. […] Mean values are presented and error bars represent the SEM. P values were determined by one-way ANOVA; *P<0.05, ** P<0.01, ***P<0.001, ****P<0.0001, ns: non-significant.\nAdditionally, products from DENV-stimulated human mast cells promoted platelet activation, dependent on platelet 5HT2A receptor, since this effect was abolished by ketanserin (FIG. 9B). […] Furthermore, ketanserin is effective in reversing DENV-induced human platelet activation."}, "DENV2-infected mice": {"tested_on": "DENV2-infected mice", "assay": "Platelet aggregation in peripheral blood smears of DENV2-infected WT mice", "type": "in vivo", "settings": "10^6 pfu DENV2 IP, ketanserin 8 mg/kg IP 1 hour after infection, blood 24 hours post-infection, vs vehicle 1% DMSO", "description": "Images depict peripheral blood smears from DENV2-infected mice. Mice were infected via intraperitoneal route (IP) with 10^6 pfu. (A) Mock infected mice. (B) DENV-infected mice treated with vehicle control IP. (C) DENV-infected mice given ketanserin 8 mg/kg IP. Blood was taken via cheek bleed 24 hours post-infection, smeared onto glass slides, stained with eosin and methylene blue and viewed under light microscopy using a 100× magnification lens. Dengue induces platelet aggregation, while administration of ketanserin prevents this. A few individual platelets are indicated by arrows; platelet aggregates are circled by dashed lines. Scale bar=10 μm.\nTo test whether ketanserin could block platelet aggregation and/or prevent thrombocytopenia, a mouse model of dengue infection was used. WT mice were infected via intraperitoneal route (IP) with 10^6 pfu of DENV2 and, after 1 hour, treated with vehicle (1% DMSO) or ketanserin (8 mg/kg) IP. Blood was taken via cheek bleed 24 hours post-infection, smeared onto glass slides, stained with eosin and methylene blue and viewed under light microscopy using a 100× magnification lens. […] Selected red blood cells (RBC), platelets (arrows) and platelet aggregates (dashed lines) are labeled."}}, "data": [{"smiles": "O=C(c1ccc(F)cc1)C1CCN(CCn2c(=O)[nH]c3ccccc3c2=O)CC1", "note": "[ketanserin, 3-[2-[4-(4-fluorobenzoyl)piperidin-1-yl]ethyl]-1H-quinazoline-2,4-dione]", "values": [{"measurement": "platelet activation in human whole blood stimulated with DENV2+mast cells", "setting": "human platelets", "value": "abolished the significant increase in platelet activation"}, {"measurement": "DENV-induced platelet aggregation in peripheral blood smears", "setting": "DENV2-infected mice", "value": "prevented"}]}]}
